Laboratory results taken from US11059815B2, “Synthesis of small molecule histone deacetylase 6 degraders, compounds formed thereby, and pharmaceutical compositions containing them” (Wisconsin Alumni Research Foundation, priority 2018, dated 2021).

Key:
[1] = tested on: IKZF1/3; experiment: Western blot of IKZFs in MM1S cells; type: cell-based, human
Experimental: FIGS. 10A and 10B are western blot analysis of MM1S cells treated with selected candidates from C4-lined series (FIG. 10A) and C5-lined series (FIG. 10B) for 6 h.
FIGS. 12A, 12B, and 12C are a series of western blots showing that degrader 12d selectively promotes HDAC6 degradation in MM1S cells.
As discussed before, pomalidomide and its analogues are known to activate CRBN's E3 ligase activity for the degradation of IKZFs. […] IKZFs regulate the expression of interferon regulatory factor 4 (IRF4) and c-Myc to affect the proliferation of multiple myeloma (MM). […] PROTACs with IKZF degradation activity have been reported in a number of cases and the IKZFs are often considered as “off-targets” during the development of these PROTACs. The results presented here indicate that the IKZF degradation activity can be impacted by the linker position and the functional group next to the phthalimide ring. In the studies, the triazole ring linked to C4 position likely contributed to the induced interaction between CRBN and IKZFs.
To evaluate the activity and selectivity of 12d, a full dose response experiment was performed with compound concentrations ranging from 0.3 nM to 10 μM in MM1S cells (FIG. 12A) for several HDACs, IKZFs, and Ac-tubulin. […] Degrader 12d reduced HDAC6 protein content at as low as 3 nM and achieved maximal effects around 30 nM. […] See Douglass et al. 2013, supra. The degradation of IKZFs started from 30 nM and was dose-dependent. It is interesting to see the more efficient degradation of HDAC6, which requires the formation of ternary complex, than that of IKZFs, which only requires the formation of binary complex. In addition to the distinct mechanism, the different turnover rates of HDAC6 and IKZFs may also contribute to the observed results. The acetylated tubulin level was also dose-dependent. At higher concentrations (3 μM and 10 μM), tubulin acetylation was not […] in response to recovered HDAC6 expression by “hook effect”. The elevated tubulin acetylation at higher concentrations was likely due to the combination of HDAC6 degradation and HDAC6 inhibition.
To probe the efficiency of 12d, MM1S was treated with 100 nM 12d and the change of HDAC6 protein level was monitored by time. The HDAC6 degradation started around 1 h and reached maximal degradation effect at 4 h. The degradation of IKZFs was only observed after 4 h. Meanwhile, HDAC1 was not affected and the acetylation of tubulin was accumulated by time. […] HDAC6 expression was monitored for 48 h. […]
When the cells reached 90% confluence, they were harvested and plated 1×10^6 cells per well in 6-well plate. […] Protein concentration was measured by using the Pierce BCA protein assay (Thermo Fisher Scientific). […]

[2] = tested on: HDAC6 and related genes; experiment: qRT-PCR of mRNA level of HDAC6 and related genes; type: cell-based, human; conditions: 6 h treatment
Source text: To support the involvement of ubiquitination-proteasome system for the decrease of HDAC6 protein level, the degrader was co-treated with binding competitors or pathway blockers. […] Moreover, it also confirmed the role of the pomalidomide moiety in modulating IKZFs. […] Additionally, proteasome inhibitor MG132 and Bortezomib were used to block the down-stream proteasome degradation. […] Acetylated tubulin level was suppressed as well. This confirms that HDAC6 degradation is responsible for the acetylation of its substrates rather than inhibition by the “warhead” moiety. To exclude the possible transcriptional impact by degraders, qRT-PCR was used to examine the mRNA level of HDAC6 and related genes (data not shown). […] This is consistent with the hypothesis that the cellular knockdown of HDAC6 is due to direct protein degradation, not by transcriptional downregulation.
After treatment, cells were harvested and washed with cold PBS twice. […] The concentration of RNA was measured by Plate Reader. […] Ct value at automatically selected threshold was reported and calculated by 2^−ΔΔCt method. (Livak, K. J.; Schmittgen, T. D. “Analysis of Relative Gene Expression Data Using Real-Time Quantitative PCR and the 2 C T Method” METHODS 2001, 25, 402-408. The bar graph was generated and by GraphPad Prism.

In the case of `CCCCN(Cc1ccc(C(=O)NO)cc1)C(=O)Nc1ccc(OCCCCCn2cc(CNc3cccc4c3C(=O)N(C3CCC(=O)NC3=O)C4=O)nn2)cc1` (centres unmarked) [Compound 12d, 4-((1-butyl-3-(4-((5-(4-(((2-(2,6-dioxopiperidin-3-yl)-1,3-dioxoisoindolin-4-yl)amino)methyl)-1H-1,2,3-triazol-1-yl)pentyl)oxy)phenyl)ureido)methyl)-N-hydroxybenzamide], the “IKZF3 recovery after wash-out” value ([1]; 100 nM for 6 h, washed with PBS, after 12 h) is reported as “quickly recovered”, the “induced degradation of IKZF1/3” value ([1]; 100 nM, 6 h, MM1S) is reported as “retained the induced degradation” and the “time after which degradation of IKZFs was observed” value ([1]; 100 nM, MM1S) is reported as > 4 h. For the same compound, the “concentration from which degradation of IKZFs started” value ([1]; 12d dose response 0.3 nM to 10 μM, MM1S) was ≥ 30 nM and the “effect on mRNA level of HDACs and IKZFs” value [2] was “Little to no effects”.
